Here are results for six compounds from US5530126A, “Process for the preparation of substituted 6-(pyrazol-3yl)-1,4-benzoxazin-3-ones” (Monsanto Company, priority 1994, dated 1996).

Holding throughout (assay type): in vivo
Assay [1] deals with Barnyardgrass. Put plainly: Pre-emergence herbicide test. The note with it: Echinochloa crus-galli, read-out: % plant inhibition (Bygr); for inhibition at 11210 g/ha: 11.21 kg/ha. How it is done:
(§1) The tests for pre-emergence herbicide activity are conducted as follows:
(§2) Topsoil is placed in an aluminum pan and compacted to a depth of 0.95 to 1.27 cm from the top of the pan. On the top of the soil is placed a predetermined number of seeds of each of several monocotyledonous and dicotyledonous annual plant species and/or vegetative propagules of various perennial plant species. A known amount of the active ingredient dissolved or suspended in an organic solvent, e.g., acetone, or water as carrier is then applied directly to the seed bed, which is then covered with a layer of untreated topsoil to level fill the pan. After treatment, the pans are moved to a greenhouse bench where they are watered from below as needed to give adequate moisture for germination and growth.
(§3) Approximately 10-14 days (usually 11 days) after seeding and treating, the pans are observed and the results (% inhibition) are recorded.
(§4) Tables 7 and 7A below summarize the results of the pre-emergence herbicidal activity tests of compounds of this invention in weeds. The herbicidal rating shown in these tables is the percent inhibition of each plant species. The plant species usually regarded as weeds which are utilized in one set of tests, the data for which are shown in the tables, are identified by letter headings above the columns in accordance with the following legend: […]

In assay [2] the test system is Annual bluegrass. In words: Pre-emergence herbicide test. Conditions: read-out: % plant inhibition (Anbg); for inhibition at 11210 g/ha: 11.21 kg/ha. On the procedure:
as §1, §2, §3, §4

In assay [3] the test system is Yellow nutsedge. Put plainly: Pre-emergence herbicide test. Conditions: Cyperus, read-out: % plant inhibition (Yens); for inhibition at 11210 g/ha: 11.21 kg/ha. On the procedure:
as §1, §2, §3, §4

Assay [4] concerns Seedling johnsongrass. Put plainly: Pre-emergence herbicide test. The note with it: Sorghum halepense, read-out: % plant inhibition (Sejg); for inhibition at 11210 g/ha: 11.21 kg/ha. On the procedure: as §1, §2, §3, §4
Assay [5] has as its system Velvetleaf. In words: Pre-emergence herbicide test. The note with it: Abutilon theophrasti, read-out: % plant inhibition (Vele); for inhibition at 11210 g/ha: 11.21 kg/ha. On the procedure: as §1, §2, §3, §4
In assay [6] the test system is Cocklebur. In words: Pre-emergence herbicide test. Conditions: Xanthium strumarium, read-out: % plant inhibition (Cobu); for inhibition at 11210 g/ha: 11.21 kg/ha. How it is done: as §1, §2, §3, §4
Assay [7] relates to Morningglory. In words: Pre-emergence herbicide test. Conditions: Ipomoea, read-out: % plant inhibition (Mogl); for inhibition at 11210 g/ha: 11.21 kg/ha. On the procedure: as §1, §2, §3, §4
The subject of assay [8] is Indian Mustard. Put plainly: Pre-emergence herbicide test. The note with it: Brassica juncea, read-out: % plant inhibition (Inmu); for inhibition at 11210 g/ha: 11.21 kg/ha. On the procedure:
as §1, §2, §3, §4

For assay [9], the system named is Wild buckwheat. In words: Pre-emergence herbicide test. Conditions: Fallopia convolvulus, read-out: % plant inhibition (Wibw); for inhibition at 11210 g/ha: 11.21 kg/ha. On the procedure:
as §1, §2, §3, §4

Assay [10] has as its system Downy Brome. In words: Pre-emergence herbicide test. Conditions: Bromus tectorum, read-out: % plant inhibition (Dobr); for inhibition at 11210 g/ha: 11.21 kg/ha. On the procedure:
as §1, §2, §3, §4

In assay [11] the test system is Barnyardgrass. In words: Post-emergence herbicide test. Conditions: Echinochloa crus-galli, 11.21 kg/ha, read-out: % plant inhibition (Bygr). From the text: (§5) Topsoil is placed in aluminum pans having holes in the bottom and compacted to a depth of 0.95 to 1.27 cm from the top of the pan. A predetermined number of seeds of each of several dicotyledonous and monocotyledonous annual plant species and/or vegetative propagules for the perennial plant species are placed on the soil and pressed into the soil surface. The seeds and/or vegetative propagules are covered with soil and leveled. The pans are then placed on a bench in the greenhouse and watered from below as needed. After the plants reach the desired age (two to three weeks), each pan, is removed individually to a spraying chamber and sprayed by means of an atomizer, operating at a spray pressure of 170.3 kPa (10 psig) at the application rates noted. In the spray solution is an amount of an emulsifying agent mixture to give a spray solution or suspension which contains about 0.4% by volume of the emulsifier. The spray solution or suspension contains a sufficient amount of the candidate chemical in order to give application rates of the active ingredient corresponding to those shown in Tables 8 and 8A, while applying a total amount of solution or suspension equivalent to 1870 L/Ha (200 gallons/acre). The pans were returned to the greenhouse and watered as before and the injury to the plants as compared to the control is observed at approximately 10-14 days (usually 11 days) and in some instances observed again at 24-28 days (usually 25 days) after spraying. The post-emergent herbicidal activity shown in these tables is the percent inhibition of each plant species.

In assay [12] the test system is Annual bluegrass. Put plainly: Post-emergence herbicide test. Conditions: 11.21 kg/ha, read-out: % plant inhibition (Anbg).
From the text: as §5

In assay [13] the test system is Yellow nutsedge. Put plainly: Post-emergence herbicide test. Conditions: Cyperus, read-out: % plant inhibition (Yens); for inhibition at 11210 g/ha: 11.21 kg/ha.
From the text: as §5

Assay [14] concerns Seedling johnsongrass. In words: Post-emergence herbicide test. Conditions: Sorghum halepense, 11.21 kg/ha, read-out: % plant inhibition (Sejg).
From the text: as §5

The test system of assay [15] is Velvetleaf. In words: Post-emergence herbicide test. The note with it: for inhibition at 11210 g/ha: Abutilon theophrasti, 11.21 kg/ha, read-out: % plant inhibition (Vele).
From the text: as §5

For assay [16], the system named is Cocklebur. Put plainly: Post-emergence herbicide test. The note with it: for inhibition at 11210 g/ha: Xanthium strumarium, 11.21 kg/ha, read-out: % plant inhibition (Cobu).
From the text: as §5

The test system of assay [17] is Morningglory. In words: Post-emergence herbicide test. The note with it: for inhibition at 11210 g/ha: 11.21 kg/ha.
From the text: as §5

Assay [18] deals with Indian Mustard. Put plainly: Post-emergence herbicide test. The note with it: Brassica juncea, 11.21 kg/ha, read-out: % plant inhibition (Inmu).
From the text: as §5

Assay [19] has as its system Downy Brome. Put plainly: Post-emergence herbicide test. The note with it: Bromus tectorum, 11.21 kg/ha, read-out: % plant inhibition (Dobr).
From the text: as §5

For assay [20], the system named is Wild buckwheat. Put plainly: Post-emergence herbicide test. Conditions: Fallopia convolvulus, 11.21 kg/ha, read-out: % plant inhibition (Wibw).
From the text: as §5

Setting [21] is: Ipomoea, read-out: % plant inhibition (Mogl).

Several values for one entry are separate records, joined by “and”; a condition that tells them apart may be missing. Identical values can stand only once.

For orientation: inhibition means how much of the control response was suppressed. Turning to `Cn1nc(C(F)(F)F)c(Cl)c1-c1cc(F)c(Cl)cc1Cl` [Compound 80], the inhibition at 11210 g/ha in assay [1] is 70%; in assay [2], 90%; in assay [3], 0%; in [4], 80%; in assay [5], 100%; in [6], 60%. The inhibition at 11210 g/ha in [7] was 60%; in assay [8], 80%; in assay [9] it was 90%; in assay [10] it was 70%; in assay [11], 0%; in assay [12], 0%. The inhibition at 11210 g/ha in [13] was 0%; in assay [14], 0%; in [15], 60%; in [16] it was 10%; in assay [17] (setting [21]), 10%; in assay [18], 0%. In assay [19], the inhibition at 11210 g/ha worked out at 0%.

As for `Cn1nc(C(F)(F)F)c(Cl)c1-c1cc(F)c([N+](=O)[O-])cc1F` [Compound 70], the inhibition at 11210 g/ha in [1] is 40%; in assay [2], 40%; in assay [3], 0%; in [4] it was 80%; in [5], 90%; in assay [6], 20%. Besides, the inhibition at 11210 g/ha in assay [7] worked out at 80%; in assay [8], 80%; in [9], 80%; in assay [10], 20%; in [11] it was 40%; in [12], 10%. In addition, the inhibition at 11210 g/ha in assay [13] was determined as 0%; in assay [14], 10%; in [15] it was 50%; in assay [16], 30%; in assay [17] (setting [21]), 40%; in [18], 20%. Further, the inhibition at 11210 g/ha in assay [19] was found to be 10%.

With `Cn1nc(-c2cc(NC(=O)C3(Br)CC3)c(Cl)cc2F)c(Cl)c1C(F)(F)F` [Compound 500, cyclopropanecarboxamide,-1-bromo-N-[2-chloro-5-[4-chloro-1-methyl-5-(trifluoromethyl)-1H-pyrazol-3-yl]-4-fluorophenyl]-], the inhibition at 11210 g/ha is 30% in [1]; 10% in assay [2]; 0% in assay [3]; 70% in assay [4]; 70% in [5]; 40% in assay [6]. Moreover, the inhibition at 11210 g/ha was 60% in assay [7]; 30% in assay [8]; 90% in assay [9]; 80% in assay [10]; 50% in assay [12]; 0% in assay [13]. Besides, in assay [14], the inhibition at 11210 g/ha was 90%.

Consider `Cn1nc(C(F)(F)F)c(Cl)c1-c1ccc([N+](=O)[O-])cc1` [Compound 65], for which the inhibition at 11210 g/ha came to 30% in assay [1]; 70% in assay [2]; 0% in assay [3]; 70% in [4]; 90% in [5]; 0% in [6]. In addition, the inhibition at 11210 g/ha was determined as 20% in assay [7]; 80% in assay [9]; 0% in [10]; 70% in assay [11]; 0% in [12]; 0% in assay [13]. Also, the inhibition at 11210 g/ha in assay [14] is 50%; in [15], 70%; in assay [16], 40%; in [17] (setting [21]), 50%; in assay [18], 30%; in assay [20], 70%. The inhibition at 11210 g/ha in assay [19] came out at 10%.

Consider `Cn1nc(-c2cc(F)c(Cl)cc2Cl)c(Cl)c1C(F)(F)F` [Compound 84], for which the inhibition at 11210 g/ha in assay [1] was 100%; in assay [2], 100%; in assay [3], 30%; in assay [4] it was 100%; in [5], 100%; in assay [6], 80%. For the same compound, the inhibition at 11210 g/ha stood at 90% in assay [7]; 100% in [8]; 100% in [9]; 100% in [10]; 10% in assay [11]; 10% in assay [12]. The inhibition at 11210 g/ha in assay [13] was 10%; in [14], 40%; in assay [15] it was 100%; in [16], 20%; in [17] (setting [21]), 50%; in assay [18] it was 0%. Further, the inhibition at 11210 g/ha in [19] was found to be 0%.

In the case of `Cn1nc(-c2cc(OCC(=O)OC(C)(C)C)c(Cl)cc2F)c(Cl)c1C(F)(F)F` [Compound 294, (2-Chloro-5-(4-chloro-1-methyl-5-(trifluoromethyl)-1H-pyrazol-3-yl)-4-fluorophenoxy)acetic acid, 1,1-dimethylethyl ester], the inhibition at 1120 g/ha in [1] (1.12 kg/ha) came to 20%; in [2] (1.12 kg/ha) it was 0%; in assay [3] (1.12 kg/ha), 0%; in assay [4] (1.12 kg/ha) it was 20%; in [5] (1.12 kg/ha), 70%; in assay [6] (1.12 kg/ha), 80%. Further, the inhibition at 1120 g/ha in [7] (1.12 kg/ha) turned out to be 70%; in [8] (1.12 kg/ha), 0%; in assay [9] (1.12 kg/ha) it was 90%; in assay [10] (1.12 kg/ha), 20%; in [13] (1.12 kg/ha), 0%; in assay [17] (Ipomoea, 1.12 kg/ha, read-out: % plant inhibition (Mogl)), 80%. The “% plant inhibition (Vele)” value in assay [15] (1.12 kg/ha) was 50% and 80%. In addition, in assay [16] (1.12 kg/ha), the “% plant inhibition (Cobu)” value stood at 50%. Moreover, the “% plant inhibition (Mogl)” value in assay [17] (1.12 kg/ha) was found to be 90%.
